Assay results reported in US20090105136A1, “NPY Y2 Agonist for Use as Therapeutic Agent for Disease Accompanied by Diarrhea” (priority 2005, published 2009).

Tested on: mice (C57BL/6)
Test: Motility of stomach and small intestine (charcoal transit, GI motility)
Assay type: in vivo
Conditions: 0.3 mg/kg or 3 mg/kg intraperitoneal; 30 minutes after oral charcoal; vs vehicle control mice; FIG. 1
Procedure: At the same time, control mice (vehicle) to which only a vehicle was administered were prepared, and the same test was carried out using these mice. The motility of stomach and small intestine was measured as follows. That is, charcoal powder was suspended in a 0.5% methyl cellulose solution and the resulting suspension was orally administered to the mice. After 30 minutes, the distance that the charcoal entering into the stomach traveled in the intestinal tract was measured by dissection. At the same time, the total length of the small intestine from the pyloric portion of stomach to the beginning of the cecum was also measured, and the ratio (%) of the distance that the charcoal traveled to the total length of the small intestine was plotted in a graph as a GI (gastrointestinal) motility.

Substance: neuropeptide Y [NPY]
- GI (gastrointestinal) motility: ratio of distance the charcoal traveled to total length of small intestine: lower than that of the control mice
